These results are taken from paper PMC11509018, “Evaluation of the Role of Tanshinone I in an In Vitro System of Charcot-Marie-Tooth Disease Type 2N” (International Journal of Molecular Sciences, 2024).

The structures appear in SMILES notation. Counter-ions that a name gives are not always drawn.

The target of test [1] is T1, AlaRS^R329H (Homo sapiens, UniProt P49588, R329H).
T1 construct: made in house; host or cells: E. coli BL21 (DE3), pET-21a
T1 sequence (P49588 1-968 R329H): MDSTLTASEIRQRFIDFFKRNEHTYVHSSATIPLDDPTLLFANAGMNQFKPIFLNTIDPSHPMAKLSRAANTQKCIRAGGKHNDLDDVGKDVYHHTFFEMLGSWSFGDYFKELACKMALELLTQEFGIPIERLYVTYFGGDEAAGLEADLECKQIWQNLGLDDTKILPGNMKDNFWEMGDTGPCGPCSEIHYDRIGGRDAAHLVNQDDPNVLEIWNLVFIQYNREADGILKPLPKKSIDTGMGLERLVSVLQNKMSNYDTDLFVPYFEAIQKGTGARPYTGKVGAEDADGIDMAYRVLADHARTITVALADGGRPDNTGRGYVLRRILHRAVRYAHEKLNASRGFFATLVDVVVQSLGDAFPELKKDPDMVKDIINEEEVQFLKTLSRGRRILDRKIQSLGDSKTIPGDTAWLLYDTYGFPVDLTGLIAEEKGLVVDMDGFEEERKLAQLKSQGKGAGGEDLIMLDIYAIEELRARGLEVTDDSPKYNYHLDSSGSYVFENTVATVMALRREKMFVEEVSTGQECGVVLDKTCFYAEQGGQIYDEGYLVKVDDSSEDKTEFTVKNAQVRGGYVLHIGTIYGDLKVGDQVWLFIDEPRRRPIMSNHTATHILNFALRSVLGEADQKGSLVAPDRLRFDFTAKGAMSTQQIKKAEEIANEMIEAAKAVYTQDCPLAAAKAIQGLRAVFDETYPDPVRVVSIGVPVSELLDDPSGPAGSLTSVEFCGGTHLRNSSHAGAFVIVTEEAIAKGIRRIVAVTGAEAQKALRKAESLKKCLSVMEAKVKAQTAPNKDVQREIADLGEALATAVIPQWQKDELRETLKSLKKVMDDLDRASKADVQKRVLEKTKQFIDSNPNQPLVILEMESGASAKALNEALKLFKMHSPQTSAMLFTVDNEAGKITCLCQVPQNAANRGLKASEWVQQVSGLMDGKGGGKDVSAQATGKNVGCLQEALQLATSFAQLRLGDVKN
Kind of test: ATP consumption assay (enzyme inhibition). Type of test: biochemical. The note with it: 1 μM AlaRS^R329H at 20 μM compounds; vs DMSO control. How it is done: We further investigated the effects of the four small molecules on the enzymatic activity of the AlaRS^R329H protein using an ATP consumption assay. All four compounds affected enzymatic activity to varying degrees. […] The ATP consumption assay was used to evaluate the enzymatic inhibitory activity of the compounds. A 30 μL reaction mixture, containing 1 μM AlaRS mutants, 25 μM ATP, 50 μM L-alanine, 30 mM HEPES (pH 7.5), 150 mM NaCl, 30 mM KCl, 40 mM MgCl2, 0.1% BSA, and varying concentrations of Tanshinone I, was incubated at room temperature for 15 min. After incubation, 10 μL of the mixture was transferred to a 384-well microplate, and AlaRS mutant activity was measured by adding 10 μL of the ATP Assay Kit (#S0026, Beyotime, Shanghai, China). Luminescence was recorded using a Synergy HTX multimode microplate reader (BioTek Inc., Winooski, VT, USA). The inhibitory rate was calculated from three independent assays to ensure the accurate assessment of Tanshinone I’s inhibitory activity. The experiment was repeated three times.

Test [2] has as its target T1, AlaRS^R329H. Kind of test: Thermal shift assay (TSA). Format: binding. The note with it: positive hit = shift of more than 2.5 °C. From the text:
In this assay, with increasing temperatures, the protein undergoes thermal unfolding, exposing its hydrophobic core. Subsequently, a fluorescent dye binds to these hydrophobic regions, becoming unquenched. Fluorescence is closely monitored, and the midpoint of the protein unfolding transition is designated as the Tm. Ligand binding frequently influences protein thermal stability during denaturation. Thus, the ligand binding affinity of any potential inhibitor can be gauged by evaluating the shift in the Tm. In this experiment, we screened a library of 2000 small molecules (Table S1) and classified as positive hits those that caused a shift in the Tm of the mutant protein of more than 2.5 °C. From the TSA, we identified four small molecules that met this criterion (Figure 2A, Table 1). Specifically, Atazanavir sulfate caused a shift of 4.0 °C, Tanshinone I a shift of 3.1 °C, Hederacolchiside A1 a shift of 4.3 °C, and Hexylresorcinol a shift of 5.5 °C (Figure 2B). To assess the impact of small molecules on the thermal stability of mutant proteins, thermal shift assays were performed using a […] (Applied Biosystems, Waltham, MA, USA) with the Protein Thermal Shift™ Kit dye (Thermo Fisher Scientific, Waltham, MA, USA). Each well of a 96-well Optical Reaction Plate (Applied Biosystems) contained 14 μL of thermal shift buffer, 2 μL of diluted thermal shift dye (8×), 2 μL of a 1 mM small molecule solution, and 2 μL of 1 mg/mL protein. Plates were incubated at 4 °C for 1 h before being heated from 25 °C to 95 °C at 1 °C/min. The fluorescence signal of SYPRO orange (excitation/emission: 490/530 nm) was recorded at 30 s intervals to monitor protein denaturation. The melting temperature (Tm), defined as the midpoint of the unfolding transition, was determined from the fluorescence–temperature curve. ΔTm was calculated as the difference in Tm between AlaRS^R329H treated with compounds and the control. Experiments were conducted in triplicate for accuracy. The experiment was repeated three times.

Test [3] concerns the target T1, AlaRS^R329H. Kind of test: Proteolytic digestion assay (trypsin, SDS-PAGE). To be noted: 3 h. As for the experimental part:
To delve deeper into the impact of selected small molecules on the structural conformation of AlaRS^R329H proteins, a series of proteolysis experiments were conducted. The small molecules were incubated with AlaRS^R329H proteins at room temperature for three hours, followed by SDS-PAGE analysis to evaluate their effects on the distribution of the digestion fragments. […] The AlaRS^R329H proteins (in the presence and absence of Atazanavir sulfate, Tanshinone I, Hederacolchiside A1, and Hexylresorcinol) were incubated with trypsin at different concentrations for 3 h before the reactions were quenched, and the products were separated by SDS-PAGE.

In test [4] the target is T1, AlaRS^R329H. Description: Biolayer interferometry (BLI). Format: binding. To be noted: immobilized AlaRS^R329H, 40, 20, 10, 5, 2.5 μM, mean ± SD, triplicate. From the text: To quantitatively analyze the binding affinity between the small molecules and the CMT mutant proteins, we performed BLI analysis on the selected candidates. BLI offers direct measurements of drug–protein binding kinetics, including key parameters such as the equilibrium dissociation constant (KD), association rate (Kon), and dissociation rate (Koff). This analysis provided key insights into the binding affinities of the four small molecules with the mutant protein AlaRS^R329H. […] To further quantify the binding of small molecules to mutant proteins, binding experiments with AlaRS^R329H proteins and small molecules were conducted using an Octet R8 system (ForteBio, Fremont, CA, USA). Purified His-tagged AlaRS^R329H proteins (500 μg/mL) were captured on Ni-NTA biosensors (ForteBio, Fremont, CA, USA), achieving a saturation response of 4–5 nm after 300 s. The biosensors were then transferred to Octet buffer (PBS with 0.01% Tween 20) for 180 s to remove loosely bound, nonspecific proteins and to establish a stable baseline. Following this, the sensors were immersed in diluted Tanshinone I (2.5–100 μM in assay buffer) for 120 s to record the association signal, and then transferred back into Octet buffer to monitor the dissociation signal for 120 s. Reference wells containing buffer instead of Tanshinone I were included to correct for baseline shifts. Additionally, a parallel set of Ni-NTA sensors in buffer served as negative reference controls to account for nonspecific binding of the compounds to the biosensor surface. The data were processed using a double reference subtraction protocol to eliminate nonspecific signals, background noise, and signal drifts caused by biosensor variability. All assays were performed in 96-well black plates with a total volume of 200 μL per well at 30 °C. Data analysis, including correction and curve fitting, was carried out using Octet® Analysis Studio 12.2.2.26. The experiment was repeated three times.
On the technique in general: In BLI a coated tip is dipped into the sample, and binding shifts an interference pattern.

As a reminder, the Kd is the free concentration of one partner at which half of the binding sites on the other are occupied at equilibrium, for simple one-to-one binding. The low end stands for higher affinity, the high end for lower affinity.

As for `C[C@@H]1O[C@@H](O[C@H]2[C@H](O[C@H]3CC[C@]4(C)[C@H]5CC=C6[C@@H]7CC(C)(C)CC[C@]7(C(=O)O)CC[C@@]6(C)[C@]5(C)CC[C@H]4C3(C)C)OC[C@H](O[C@@H]3O[C@H](CO)[C@@H](O)[C@H](O)[C@H]3O)[C@@H]2O)[C@H](O)[C@H](O)[C@H]1O` [Hederacolchiside A1], on AlaRS^R329H [1], the “Relative Activity (relative enzyme activity of the first step)” value (shortened to “Relative Activity”) came to 69.6%. Moreover, the “ΔTm (shift between the Tm values of AlaRS^R329H with and without compounds)” value on AlaRS^R329H [2] came to 4.3 °C. Moreover, the “Effect on distribution of digestion fragments / conformation” value on AlaRS^R329H [3] was “slight conformational change”. Moreover, the dissociation constant Kd on AlaRS^R329H [4] turned out to be 10.1 ± 0.5 µM.

As for `COC(=O)N[C@H](C(=O)N[C@@H](Cc1ccccc1)[C@@H](O)CN(Cc1ccc(-c2ccccn2)cc1)NC(=O)[C@@H](NC(=O)OC)C(C)(C)C)C(C)(C)C` [Atazanavir sulfate, reference compound], at AlaRS^R329H [1], the “Relative Activity” value stood at 96.8%. Also, on AlaRS^R329H [2], the “ΔTm (shift between the Tm values of AlaRS^R329H with and without compounds)” value was 4.0 °C. For the same compound, the “Effect on distribution of digestion fragments / conformation” value on AlaRS^R329H [3] was “minimal effects on the distribution of digestion fragments”. The compound further had a dissociation constant (Kd) at AlaRS^R329H [4] of 28.6 ± 9.9 µM.

For `CCCCCCc1ccc(O)cc1O` [Hexylresorcinol, reference compound], on AlaRS^R329H [1], the “Relative Activity” value is reported as 79.8%. Besides, the “Effect on distribution of digestion fragments / conformation” value at AlaRS^R329H [3] is given as “minimal effects on the distribution of digestion fragments”. Besides, binding on AlaRS^R329H [4] was put at a Kd of 26.3 ± 9.9 µM.
